# Test results from patent US20140088032A1, “TREATMENT OF MASTITIS” (priority 2011, published 2014).
# Where “and” joins values, the source holds several entries; their conditions need not be identical. Identical values can stand only once. Entries after “also recorded” stand apart in the source; their conditions may differ. Counter-ions that a name gives are not always drawn. Like-named read-outs stand apart in the source and are kept apart here.
# Tests used:
# [1] = system: Staphylococcus aureus strain Newbould 305 (ATCC 29740); experiment: Example 1: experimental S. aureus mastitis in lactating cows, intramammary treatment; format: in vivo, Prim'Holstein lactating cows
# Experimental: A Staphylococcus aureus strain Newbould 305 (ATCC 29740) stock suspension (about 10^11 CFU/ml) was kept frozen at −80° C. in peptone physiological water with 10% of glycerol. On day 0, the stock solution was thawed and diluted in peptone physiological water to a concentration of ca 1000 cfu/ml.
# On Day 0 8 Prim'Holstein lactating cows, animals of between 2-5 years old and at least 2 months in lactation, were intramammarily inoculated into two homolateral quarters with 1 ml of S. aureus suspension per quarter (ca. 1000 cfu/quarter) into the teat cistern with sterile 2-ml syringes. Teat ends were disinfected with towels soaked in a disinfectant solution before infusion.
# On day 6 after the challenge 4 cows (8 quarters) were treated with 75 mg cefquinome—one injector after each of 3 consecutive milkings—Group A. The 4 other cows infected were treated with 75 mg cefquinome as well, but 10 μg of re-LPS were infused just before each cefquinome infusion—Group B.
# The standard assay for measuring mastitis in the dairy industry is to count the number of cells (originating from the cow) in the milk. This estimate is termed the somatic cell count (SCC). Specifically, the SCC reflects the levels of cells, including immune cells, such as leukocytes that are released from the lining and tissues of the udder of the infected animal, into the udder cavity. The number of somatic cells in a given volume of milk (typically 1 ml) provides a semi-quantitative estimate of the degree of mastitis, because unaffected animals typically have low SCC levels.
# Milk samples were investigated for S. aureus presence and SCC levels at several time points during the study (days 2, 6, 9, 13, 16, 20, 23 post challenge for S. aureus bacteriology).
# Clinical cure was assessed 16 days after treatment end (i.e. 23 days after the challenge), and was defined as having at least the two last consecutive milk samples with SCC <250000 cells/ml.
# TLR4 = conditions: relative to native LPS; cited from earlier work
# [2] = system: Staphylococcus aureus strain Newbould 305 (ATCC 29740); experiment: Example 2: experimental S. aureus mastitis in lactating cows, intramammary treatment; format: in vivo, Prim'Holstein lactating cows; conditions: after Re-LPS infusion with neomycin/penicillin
# Experimental: A Staphylococcus aureus strain Newbould 305 (ATCC 29740) stock suspension (about 10^9 CFU/ml) was kept frozen at −80° C. in peptone physiological water with 10% of glycerol. On day 0, the stock solution was thawed and diluted in peptone physiological water to a concentration of ca 200 cfu/ml.
# On Day 0, 12 Prim'Holstein lactating cows, animals of between 2-8 years old and at least 1 month in lactation, were inoculated by intramammary route into two homo-lateral quarters, with 5 ml of S. aureus suspension per quarter (ca. 1000 cfu/quarter), using 5-ml syringes. Teat ends were disinfected with towels soaked in a disinfectant solution before infusion. […]
# The standard assay for measuring mastitis in the dairy industry is to count the number of cells (originating from the cow) in the milk. […] The number of somatic cells in a given volume of milk (typically 1 ml) provides a semi-quantitative estimate of the degree of mastitis, because unaffected animals typically have low SCC levels. […]
# Bacteriological cure was assessed 16 days after treatment end (i.e. 24 days after the challenge) and was defined as having at least the two last consecutive milk samples found negative for S. aureus (<5 cfu/ml).
# Clinical cure was assessed 16 days after treatment end (i.e. 24 days after the challenge), and was defined as having at least the two last consecutive milk samples with SCC <250000 cells/ml.
# [3] = relative to native LPS; cited from earlier work
# [4] = system: S. aureus strain Newbould 305; experiment: MIC against the S. aureus challenge strain; format: cell-based, Staphylococcus aureus; conditions: S. aureus Newbould 305 strain used for the challenge
compound,measurement,setting,value
"CCCCCCCCCCCCCC(=O)O[C@H](CCCCCCCCCCC)CC(=O)OC1C(NC(=O)C[C@@H](CCCCCCCCCCC)OC(=O)CCCCCCCCCCC)[C@H](OCC2O[C@H](OP(=O)(O)O)C(NC(=O)C[C@H](O)CCCCCCCCCCC)C(OC(=O)C[C@H](O)CCCCCCCCCCC)[C@@H]2O)OC(CO[C@]2(C(=O)O)CC(O[C@]3(C(=O)O)CC(O)[C@@H](O)C([C@H](O)CO)O3)[C@@H](O)C([C@H](O)CO)O2)[C@H]1OP(=O)(O)O.N.N.N.N (stereo partly drawn) [Re-LPS, Kdo2-lipid A]",SCC levels induced by treatment,"[1]; after Re-LPS infusion with cefquinome, Example 1",above 1.10^6 cells per ml
same,Ability to activate TLR4,TLR4,comparable to that of native LPS
same,SCC levels induced by treatment,[2],above 1.10^6 cells per ml
same,Endotoxin activity,[3],equal to that of native LPS; also recorded: comparable to that of native LPS
neomycin,MIC,[4],2 µg/mL
"CO/N=C(\C(=O)N[C@@H]1C(=O)N2C(C(=O)[O-])=C(C[n+]3cccc4c3CCCC4)CS[C@H]12)c1csc(N)n1 [cefquinome, I1-[[(6R,7R)-7-[[(2Z)-(2-amino-4-thiazolyl)-(methoxyimino)acetyl]amino]-2-carboxy-8-oxo-5-thia-1-azabicyclo[4.2.0-oct-2-en-3-yl]methyl]-5,6,7,8-tetrahydroquinoliniuminner salt]","Quarters cure rate, bacteriological + clinical",[1]; day 23,37.5% (3/8)
same,"Quarters cure rate, clinical","[1]; day 23, two last samples SCC <250000 cells/ml",37.5% (3/8)
same,Cure,"[1]; individual quarter, assessed at day 23 (16 days after treatment end)",no (4×) and yes (4×)
same,Quarter milk SCC at day 9,"[1]; individual quarter, day 9 relative to infection (day 0), treatment at day 6",628 ×10^3 cell/ml and 310 ×10^3 cell/ml and 521 ×10^3 cell/ml and 533 ×10^3 cell/ml and 763 ×10^3 cell/ml and 334 ×10^3 cell/ml and 795 ×10^3 cell/ml and 249 ×10^3 cell/ml
same,Quarter milk SCC at day 13,"[1]; individual quarter, day 13 relative to infection, treatment at day 6",384 ×10^3 cell/ml and 828 ×10^3 cell/ml and 1533 ×10^3 cell/ml and 414 ×10^3 cell/ml and 250 ×10^3 cell/ml and 177 ×10^3 cell/ml and 112 ×10^3 cell/ml and 134 ×10^3 cell/ml
same,Quarter milk SCC at day 16,"[1]; individual quarter, day 16 relative to infection, treatment at day 6",2032 ×10^3 cell/ml and 921 ×10^3 cell/ml and 254 ×10^3 cell/ml and 317 ×10^3 cell/ml and 74 ×10^3 cell/ml and 125 ×10^3 cell/ml and 785 ×10^3 cell/ml and 95 ×10^3 cell/ml
same,Quarter milk SCC at day 20,"[1]; individual quarter, day 20 relative to infection, treatment at day 6",2008 ×10^3 cell/ml and 717 ×10^3 cell/ml and 281 ×10^3 cell/ml and 589 ×10^3 cell/ml and 137 ×10^3 cell/ml and 177 ×10^3 cell/ml and 1686 ×10^3 cell/ml and 77 ×10^3 cell/ml
same,Quarter milk SCC at day 23,"[1]; individual quarter, day 23 relative to infection, treatment at day 6",1382 ×10^3 cell/ml and 739 ×10^3 cell/ml and 536 ×10^3 cell/ml and 186 ×10^3 cell/ml and 98 ×10^3 cell/ml and 109 ×10^3 cell/ml and 2482 ×10^3 cell/ml and 47 ×10^3 cell/ml
same,MIC,[4],0.25 µg/mL
CC1(C)S[C@@H]2[C@H](NC(=O)Cc3ccccc3)C(=O)N2[C@H]1C(=O)O [benzyl penicillin],MIC,"[4]; Staphylococcus aureus, read-out: MIC",0.064 µg/mL
